Data: patent publication US10077261B2, “Imidazolin-5-one derivative useful as FASN inhibitors for the treatment of cancer” (Janssen Pharmaceutica NV, priority 2012, dated 2018)

Columns and labels:
[1] = biological target: Fatty Acid Synthase Keto-reductase Domain (FASN KR) (Homo sapiens, UniProt P49327); experiment: Fatty Acid Synthase keto-reductase domain (FASN KR) inhibition, NADPH oxidation at 340 nm
Method: After 20 minutes incubation at room temperature the plate was measured again (T2).
The decrease in absorbance was calculated as (Absorbance before incubation T1)−(Absorbance following incubation T2).
A plot of Controlmin versus test compound concentration was fitted to a 4-parameter logistic curve using a non-linear least squares regression method.

[2] = biological target: T1, hFASN enzyme (full length) (Homo sapiens, UniProt P49327); experiment: Fatty Acid Synthase (FASN) inhibition scintillation proximity assay; type: biochemical; details: for inhibition at 10 µM: read-out: Human FASN % inhibition @ 10 μM, 10 μM test compound; for IC50: read-out: Human FASN pIC50 (converted)
T1 construct: 10 μL hFASN enzyme (full length, 300 ng, purified in house); made in house
In short: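 Proximity read-out: hydrophobic ^3H-palmitate formed from ^3H-acetyl-CoA and malonyl-CoA binds streptavidin imaging beads, imaged at 610±20 nm at least 24 h after stopping. Enzyme was in-house purified full-length hFASN, 300 ng, in pH 7.5 phosphate/DTT buffer; compound series 30 μM down to 0.01 μM, normalized to controls, 4-parameter fit.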

[3] = test system: PC-3M-Luc-C6 prostate cells; experiment: In vitro PC-3M-Luc-C6 prostate cell proliferation assay in lipid reduced medium; type: cell-based; details: 96 h, read-out: pIC50 PC-3M-Luc-C6 prostate cell (converted)
A2780 ovarian cells [4] = experiment: A2780 ovarian cell proliferation assay in lipid reduced medium, without palmitate (MTT); type: cell-based; details: Homo sapiens, A2780, 96 h; read-out: pIC50 A2780 Ovarian Cell, Without Palmitate (converted)
A2780 ovarian cells [5] = experiment: A2780 ovarian cell proliferation assay in lipid reduced medium, with palmitate (MTT); type: cell-based; details: Homo sapiens, A2780, 96 h; read-out: pIC50 A2780 Ovarian Cell, With Palmitate (converted)
In short: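 In this palmitate-supplemented format, compound dilutions (30 μM down to 0.01 μM) are added to cells in lipid-reduced serum with 25 μM palmitate, 0.2% fatty-acid-free BSA and 0.25% ethanol. After four days (96 h) MTT absorbance at 544 nm is recorded and fitted by minimum sum of squares.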

[6] = test system: LNCaP-Vancouver prostate cells; experiment: In vitro LNCaP Vancouver prostate cell proliferation assay in lipid reduced medium; type: cell-based; details: read-out: pIC50 LNCaP_Vancouver prostate cell (converted)

T1 sequence (P49327 whole entry): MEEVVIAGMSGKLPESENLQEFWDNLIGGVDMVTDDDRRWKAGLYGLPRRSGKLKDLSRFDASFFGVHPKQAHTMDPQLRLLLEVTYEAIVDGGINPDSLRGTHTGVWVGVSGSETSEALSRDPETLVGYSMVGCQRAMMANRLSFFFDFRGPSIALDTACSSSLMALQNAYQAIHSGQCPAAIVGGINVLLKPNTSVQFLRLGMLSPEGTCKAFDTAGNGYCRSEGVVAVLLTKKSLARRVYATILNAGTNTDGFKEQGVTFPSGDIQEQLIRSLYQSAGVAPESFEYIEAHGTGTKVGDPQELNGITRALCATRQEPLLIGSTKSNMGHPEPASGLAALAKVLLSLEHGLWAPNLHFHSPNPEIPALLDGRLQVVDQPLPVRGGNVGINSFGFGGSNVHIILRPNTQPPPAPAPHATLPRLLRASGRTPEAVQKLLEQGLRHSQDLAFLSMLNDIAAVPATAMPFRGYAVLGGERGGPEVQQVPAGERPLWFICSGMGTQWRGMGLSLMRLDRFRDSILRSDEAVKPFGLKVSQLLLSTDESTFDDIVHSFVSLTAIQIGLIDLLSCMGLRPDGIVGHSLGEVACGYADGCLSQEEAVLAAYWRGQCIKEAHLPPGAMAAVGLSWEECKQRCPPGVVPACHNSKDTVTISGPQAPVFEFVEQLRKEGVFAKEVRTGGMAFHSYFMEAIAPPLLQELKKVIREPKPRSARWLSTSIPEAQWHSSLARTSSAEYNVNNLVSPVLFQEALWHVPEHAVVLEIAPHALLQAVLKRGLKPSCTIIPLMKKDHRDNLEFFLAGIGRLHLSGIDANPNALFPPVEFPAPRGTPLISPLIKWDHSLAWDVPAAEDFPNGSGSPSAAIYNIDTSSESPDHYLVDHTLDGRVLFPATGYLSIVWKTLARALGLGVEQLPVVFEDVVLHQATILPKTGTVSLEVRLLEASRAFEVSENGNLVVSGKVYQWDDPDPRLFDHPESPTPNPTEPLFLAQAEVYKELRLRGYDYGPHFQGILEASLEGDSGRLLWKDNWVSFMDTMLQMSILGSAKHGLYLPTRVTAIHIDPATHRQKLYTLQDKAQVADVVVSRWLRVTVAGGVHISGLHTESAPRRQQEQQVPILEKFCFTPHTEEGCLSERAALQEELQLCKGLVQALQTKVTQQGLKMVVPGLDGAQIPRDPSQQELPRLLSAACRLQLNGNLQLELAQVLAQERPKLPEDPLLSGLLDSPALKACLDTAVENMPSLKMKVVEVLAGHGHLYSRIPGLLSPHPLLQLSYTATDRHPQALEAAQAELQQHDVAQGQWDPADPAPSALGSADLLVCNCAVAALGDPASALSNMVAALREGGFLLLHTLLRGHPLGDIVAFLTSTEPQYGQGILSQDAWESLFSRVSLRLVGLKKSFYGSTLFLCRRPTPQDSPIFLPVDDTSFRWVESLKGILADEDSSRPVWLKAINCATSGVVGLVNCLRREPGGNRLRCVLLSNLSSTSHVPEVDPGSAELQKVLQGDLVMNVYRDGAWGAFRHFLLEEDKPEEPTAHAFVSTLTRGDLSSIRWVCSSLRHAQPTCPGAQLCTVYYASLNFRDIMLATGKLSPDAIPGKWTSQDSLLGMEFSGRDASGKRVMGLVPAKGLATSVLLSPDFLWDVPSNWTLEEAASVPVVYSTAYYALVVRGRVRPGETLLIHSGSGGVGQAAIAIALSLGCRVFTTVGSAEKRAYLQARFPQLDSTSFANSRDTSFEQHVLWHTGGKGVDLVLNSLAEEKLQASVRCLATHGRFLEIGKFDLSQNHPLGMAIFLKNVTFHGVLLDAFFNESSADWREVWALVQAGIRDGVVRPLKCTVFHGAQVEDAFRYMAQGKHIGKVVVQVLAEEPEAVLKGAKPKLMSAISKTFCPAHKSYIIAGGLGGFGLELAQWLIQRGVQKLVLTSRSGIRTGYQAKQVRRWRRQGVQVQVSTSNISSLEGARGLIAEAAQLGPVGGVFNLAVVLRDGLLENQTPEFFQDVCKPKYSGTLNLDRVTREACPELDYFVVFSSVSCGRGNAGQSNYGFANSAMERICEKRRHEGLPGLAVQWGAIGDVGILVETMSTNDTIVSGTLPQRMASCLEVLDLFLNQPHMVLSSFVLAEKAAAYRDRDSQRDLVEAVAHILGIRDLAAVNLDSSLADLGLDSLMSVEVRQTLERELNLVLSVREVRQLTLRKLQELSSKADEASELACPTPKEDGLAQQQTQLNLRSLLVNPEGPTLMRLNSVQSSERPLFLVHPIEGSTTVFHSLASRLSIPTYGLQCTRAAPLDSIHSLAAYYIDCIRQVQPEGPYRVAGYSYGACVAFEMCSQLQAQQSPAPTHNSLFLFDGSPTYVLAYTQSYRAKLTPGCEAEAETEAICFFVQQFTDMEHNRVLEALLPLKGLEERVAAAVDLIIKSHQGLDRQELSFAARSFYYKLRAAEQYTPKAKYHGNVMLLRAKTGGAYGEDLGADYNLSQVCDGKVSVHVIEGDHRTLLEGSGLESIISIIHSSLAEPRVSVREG
Fatty Acid Synthase Keto-reductase Domain (FASN KR), sequence (P49327 whole entry, the tested form may be a part): as the sequence (P49327 whole entry) above

Row | IC50 [1] [µM] | inhibition at 10 µM [2] [%] | IC50 [2] [µM] | IC50 [3] [µM] | IC50 (A2780 ovarian cells [4]) [µM] | IC50 (A2780 ovarian cells [5]) [µM] | IC50 [6] [µM] | SMILES
1 | 0.0589 | 102 | 0.0166 | 0.0339 | ~0.0309 | > 10 | 0.138 | O=C(C1CC1)N1CC(CN2C(=O)C3(CC3)N=C2c2ccc(-c3ccc4cc(F)ccc4c3)cc2F)C1 [compound 349, 6-((1-(cyclopropanecarbonyl)azetidin-3-yl)methyl)-5-(2-fluoro-4-(6-fluoronaphthalen-2-yl)phenyl)-4,6-diazaspiro[2.4]hept-4-en-7-one]
2 | 0.195 | 106 | 0.0692 | ~0.891 | 1.86 | > 10 | 1.62 | O=C(C1CC1)N1CC[C@@H](CN2C(=O)C3(CC3)N=C2c2ccc(-c3ccc4sccc4c3)cn2)C1 [compound 342, (R)-5-(5-(benzo[b]thiophen-5-yl)pyridin-2-yl)-6-((1-(cyclopropanecarbonyl)pyrrolidin-3-yl)methyl)-4,6-diazaspiro[2.4]hept-4-en-7-one]
3 | 0.0933 | 94 | 0.0741 | 0.162 | ~0.123 | 3.02 | 0.562 | Cc1cc2cc(-c3ccc(C4=NC5(CC5)C(=O)N4CC4CN(C(=O)C5(C)CC5)C4)c(F)c3)ccc2s1 [compound 352, 5-(2-fluoro-4-(2-methylbenzo[b]thiophen-5-yl)phenyl)-6-((1-(1-methylcyclopropanecarbonyl)azetidin-3-yl)methyl)-4,6-diazaspiro[2.4]hept-4-en-7-one]
4 | 0.457 | 92 | 0.251 | 0.575 | 0.38 | > 10 | 2.63 | O=C(C1CC1)N1CC(CN2C(=O)C3(CCOCC3)N=C2c2ccc(-c3ccc4cccnc4c3)cc2)C1 [compound 698, 3-{[1-(Cyclopropylcarbonyl)azetidin-3-yl]methyl}-2-(4-quinolin-7-ylphenyl)-8-oxa-1,3-diazaspiro[4.5]dec-1-en-4-one]
5 | 0.0631 | 97 | 0.0398 | 0.0251 | 0.0224 | > 10 | 0.372 | Cn1ncc2cc(-c3ccc(C4=NC5(CC5)C(=O)N4CC4CN(C(=O)C5(C)CC5)C4)c(F)c3)ccc21 [compound 357, 5-(2-fluoro-4-(1-methyl-1H-indaozl-5-yl)phenyl)-6-((1-(1-methylcyclopropanecarbonyl)azetidin-3-yl)methyl)-4,6-diazaspiro[2.4]hept-4-en-7-one]
6 | 0.0437 | 97 | 0.0219 | 0.0372 | 0.024 | 6.92 | 0.162 | Cc1ccc2cc(-c3ccc(C4=NC5(CC5)C(=O)N4CC4CN(C(=O)C5(C)CC5)C4)c(C)c3)ccc2c1 [compound 334, 5-(2-methyl-4-(6-methylnaphthalen-2-yl)phenyl)-6-((1-(1-methylcyclopropanecarbonyl)azetidin-3-yl)methyl)-4,6-diazaspiro[2.4]hept-4-en-7-one]
7 | 0.0417 | 95 | 0.0398 | 0.00832 | 0.00813 | > 6.17 | ~0.0794 | CC1(C(=O)N2CC(CN3C(=O)C4(CC4)N=C3c3ccc(-c4ccc5cc(F)ccc5c4)cc3F)C2)CC1 [compound 359, 5-(2-fluoro-4-(6-fluoronaphthalen-2-yl)phenyl)-6-((1-(1-methylcyclopropanecarbonyl)azetidin-3-yl)methyl)-4,6-diazaspiro[2.4]hept-4-en-7-one]
8 | ~0.0389 | 105 | 0.0186 | 0.0107 | ~0.00724 | > 10 | 0.049 | Cc1cc(-c2ccc3cc(C#N)ccc3c2)ccc1C1=NC2(CC2)C(=O)N1CC1CN(C(=O)C2(O)CC2)C1 [compound 272, 6-(4-(6-((1-(1-hydroxycyclopropanecarbonyl)azetidin-3-yl)methyl)-7-oxo-4,6-diazaspiro[2.4]hept-4-en-5-yl)-3-methylphenyl)-2-naphthonitrile]
9 | 0.0832 | 94 | 0.0724 | 0.0145 | ~0.0112 | > 10 | 0.0316 | O=C(C1CC1)N1CC[C@@H](CN2C(=O)C3(CC3)N=C2c2ccc(-c3ccc4cncnc4c3)cc2F)C1 [compound 258, (R)-6-((1-(cyclopropanecarbonyl)pyrrolidin-3-yl)methyl)-5-(2-fluoro-4-(quinazolin-7-yl)phenyl)-4,6-diazaspiro[2.4]hept-4-en-7-one]
10 | 0.0741 | 103 | 0.0339 | 0.0457 | 0.0214 | > 10 | ~0.407 | O=C(C1CC1)N1CC[C@@H](CN2C(=O)C3(CCCC3)N=C2c2ccc(-c3ccc4[nH]cnc4c3)cc2F)C1 [compound 877, (R)-2-(4-(1H-benzo[d]imidazol-5-yl)-21-fluorophenyl)-3-((1-(cyclopropanecarbonyl)pyrrolidin-3-yl)methyl)-1,3-diazaspiro[4.4]non-1-en-4-one]
11 | 0.0513 | 108 | 0.0209 | 0.0234 | ~0.0288 | > 10 | 0.245 | O=C(C1CC1)N1CC[C@@H](CN2C(=O)C3(CC3)N=C2c2ccc(-c3ccc4[nH]ccc4c3)c(F)c2)C1 [compound 234, (R)-6-((1-(cyclopropanecarbonyl)pyrrolidin-3-yl)methyl)-5-(3-fluoro-4-(1H-indol-5-yl)phenyl)-4,6-diazaspiro[2.4]hept-4-en-7-one]
12 | 0.112 | 101 | 0.0794 | 0.117 | 0.0661 | > 10 | 0.646 | Cn1ncc2cc(-c3ccc(C4=NC5(CCCC5)C(=O)N4C[C@@H]4CCN(C(=O)C5CC5)C4)c(F)c3)ccc21 [compound 880, (R)-3-((1-(cyclopropanecarbonyl)pyrrolidin-3-yl)methyl)-2-(2-fluoro-4-(1-methyl-1H-indazol-5-yl)phenyl)-1,3-diazaspiro[4.4]non-1-en-4-one]
13 | 0.0813 | 99 | 0.0224 | 0.0661 | ~0.0646 | > 10 | 0.363 | Cc1cc2cc(-c3ccc(C4=NC5(CC5)C(=O)N4C[C@@H]4CCN(C(=O)C5CC5)C4)cc3)ccc2[nH]1 [compound 214, (R)-6-((1-(cyclopropanecarbonyl)pyrrolidin-3-yl)methyl)-5-(4-(2-methyl-1H-indol-5-yl)phenyl)-4,6-diazaspiro[2.4]hept-4-en-7-one]
14 | 0.575 | 94 | 0.302 | ~0.355 | 0.209 | > 10 | 1.74 | Cc1cc(-c2ccc3c(cnn3C)c2)ccc1C1=NC2(CC2)C(=O)N1CC1CN(C(=O)C2(C)COC2)C1 [compound 496, 5-[2-Methyl-4-(1-methyl-1H-indazol-5-yl)phenyl]-6-({1-[(3-methyloxetan-3-yl)carbonyl]azetidin-3-yl}methyl)-4,6-diazaspiro[2.4]hept-4-en-7-one]
